Measured values: patent US20070213301A1 (ACHILLION PHARMACEUTICALS, INC., priority 2006, published 2007)

Test system: HCV replicon
Experiment: HCV replicon replication assay (NPTII ELISA)
Assay type: cell-based, Hepatitis C virus (Huh-7 cells)
Details: Hepatitis C virus, Huh-7, 72 h, inhibition of HCV replicon replication in Huh-7 HCV replicon-containing cells, three days incubation, NPT level by ELISA; read-out: EC50
Procedure, shortened: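 Huh-7 cells carrying a Bartenschlager NPTII (neo) HCV replicon, treated 3 days at 37 °C with compound, generally 6 concentrations from 10 to 0.03 micromolar, in equal DMSO across wells. NPTII level, proportional to replication, read by capture ELISA on methanol:acetone-fixed cells; interferon alpha positive control; toxicity scored visually or by MTS.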

First: CCCCCOc1ccc(N(C(N)=O)c2nc(-c3ccc4c(c3)NC(=O)CO4)cs2)cc1F [Compound 110, 1-(3-fluoro-4-(pentyloxy)phenyl)-1-(4-(3-oxo-3,4-dihydro-2H-benzo[b][1,4]oxazin-6-yl)thiazol-2-yl)urea]
Second: CCCCCOc1ccc(N(C(=O)CC(=O)OC)c2nc(-c3ccc(F)cc3)cs2)cc1F [Compound 42, methyl 3-((3-fluoro-4-(pentyloxy)phenyl)(4-(4-fluorophenyl)thiazol-2-yl)amino)-3-oxopropanoate]
The EC50 of the first is higher: over 10 µM for the first, under 1 µM for the second. The second is the more potent here.

`CCCCCCCCOc1ccc(N(C(=O)COC(C)=O)c2nc(-c3cccnc3)c(F)s2)cc1C(F)(F)F` [Compound 168, 2-((5-fluoro-4-(pyridin-3-yl)thiazol-2-yl)(4-(octyloxy)-3-(trifluoromethyl)phenyl)amino)-2-oxoethyl acetate] and `CCCCCCCCOc1ccc(N(C(C)=O)c2ncc(-c3cccnc3)s2)cc1C(F)(F)F` [Compound 194, N-(4-(octyloxy)-3-(trifluoromethyl)phenyl)-N-(5-(pyridin-3-yl)thiazol-2-yl)acetamide] cannot be ordered by EC50: under 1 µM for the first, under 1 µM for the second.

`CCCCCCOc1ccc(N(C(N)=O)c2nc(-c3cccnc3)cs2)cc1` [Compound 145, 1-(4-(hexyloxy)phenyl)-1-(4-(pyridin-3-yl)thiazol-2-yl)urea] and `CCCCCCOc1ccc(N(C(N)=O)c2nc(-c3ccccn3)cs2)cc1` [Compound 123, 1-(4-(hexyloxy)phenyl)-1-(4-(pyridin-2-yl)thiazol-2-yl)urea] cannot be ordered by EC50: under 1 µM for the first, under 1 µM for the second.

`CCCCOc1ccc(N(C(N)=O)c2nc(-c3cccnc3)cs2)cc1C(F)(F)F` [Compound 136, 1-(4-butoxy-3-(trifluoromethyl)phenyl)-1-(4-(pyridin-3-yl)thiazol-2-yl)urea] and `CCCCCOc1ccc(N(C(N)=O)c2nc(-c3cccnc3)cs2)cc1C(F)(F)F` [Compound 49, 1-(4-(pentyloxy)-3-(trifluoromethyl)phenyl)-1-(4-(pyridin-3-yl)thiazol-2-yl)urea] cannot be ordered by EC50: under 1 µM for the first, under 1 µM for the second.

`CC(C)COc1ccc(N(C(N)=O)c2nc(-c3ccc(F)c(F)c3)cs2)cc1C(F)(F)F` [Compound 126, 1-(4-(3,4-difluorophenyl)thiazol-2-yl)-1-(4-isobutoxy-3-(trifluoromethyl)phenyl)urea] and `CCCCCOc1ccc(N(C(=O)COC(C)=O)c2nc(-c3ccc(F)c(F)c3)cs2)cc1C(F)(F)F` [Compound 54, 2-((4-(3,4-difluorophenyl)thiazol-2-yl)(4-(pentyloxy)-3-(trifluoromethyl)phenyl)amino)-2-oxoethyl acetate] cannot be ordered by EC50: under 1 µM for the first, under 1 µM for the second.

`CCCCCOc1ccc(N(C(=O)C(C)C)c2nc(-c3cccnc3)cs2)cc1C(F)(F)F` [Compound 14, N-(4-(pentyloxy)-3-(trifluoromethyl)phenyl)-N-(4-(pyridin-3-yl)thiazol-2-yl)isobutyramide] and `CCCCCOc1ccc(N(C(=O)OC)c2nc(-c3cccnc3)cs2)cc1C(F)(F)F` [Compound 31, methyl 4-(pentyloxy)-3-(trifluoromethyl)phenyl(4-(pyridin-3-yl)thiazol-2-yl)carbamate] cannot be ordered by EC50: under 1 µM for the first, under 1 µM for the second.

`CCCCCN(C)c1ccc(N(C(N)=O)c2nc(-c3ccc(F)cc3)cs2)cc1C(F)(F)F` [Compound 140, 1-(4-(4-fluorophenyl)thiazol-2-yl)-1-(4-(methyl(pentyl)amino)-3-(trifluoromethyl)phenyl)urea] and `CCCCOc1ccc(N(C(N)=O)c2nc(-c3ccccn3)cs2)cc1C(F)(F)F` [Compound 103, 1-(4-butoxy-3-(trifluoromethyl)phenyl)-1-(4-(pyridin-2-yl)thiazol-2-yl)urea] cannot be ordered by EC50: under 1 µM for the first, under 1 µM for the second.

First: CCCCCCCCOc1ccc(N(C(=O)COC(C)=O)c2nc(-c3cccnc3)cs2)cc1 [Compound 67, 2-((4-(octyloxy)phenyl)(4-(pyridin-3-yl)thiazol-2-yl)amino)-2-oxoethyl acetate]
Second: CCCCCCCCOc1ccc(N(C(=O)NC(C)(C)C)c2nc(-c3cccnc3)cs2)cc1 [Compound 74, 3-tert-butyl-1-(4-(octyloxy)phenyl)-1-(4-(pyridin-3-yl)thiazol-2-yl)urea]
The EC50 of the first is lower: under 1 µM for the first, 1 to 10 µM for the second. The first is the more potent here.

`CCCCCOc1ccc(N(C(=O)c2cc(C)on2)c2nc(-c3cccnc3)cs2)cc1C(F)(F)F` [Compound 34, 5-methyl-N-(4-(pentyloxy)-3-(trifluoromethyl)phenyl)-N-(4-(pyridin-3-yl)thiazol-2-yl)isoxazole-3-carboxamide] and `CCCCCOc1ccc(N(C(=O)NCC)c2nc(-c3cccnc3)cs2)cc1C(F)(F)F` [Compound 75, 3-ethyl-1-(4-(pentyloxy)-3-(trifluoromethyl)phenyl)-1-(4-(pyridin-3-yl)thiazol-2-yl)urea] cannot be ordered by EC50: under 1 µM for the first, under 1 µM for the second.

`CCCCCCc1ccc(N(C(N)=O)c2nc(-c3cccnc3)c(F)s2)cc1C(F)(F)F` [Compound 155, 1-(5-fluoro-4-(pyridin-3-yl)thiazol-2-yl)-1-(4-hexyl-3-(trifluoromethyl)phenyl)urea] and `CCCCCCCCc1ccc(N(C(=O)OCOP(=O)(O)O)c2nc(-c3cccnc3)c(F)s2)cc1C(F)(F)F` [Compound 187, phosphonooxymethyl 5-fluoro-4-(pyridin-3-yl)thiazol-2-yl(4-octyl-3-(trifluoromethyl)phenyl)carbamate] cannot be ordered by EC50: under 1 µM for the first, under 1 µM for the second.

`CCCCCCCCOc1ccc(N(C(=O)C(=O)OC)c2nc(-c3ccc(Cl)s3)cs2)cc1` [Compound 97, methyl 2-((4-(5-chlorothiophen-2-yl)thiazol-2-yl)(4-(octyloxy)phenyl)amino)-2-oxoacetate] and `CCCCCOc1ccc(N(C(=O)C(=O)OC)c2nc(-c3ccc(Cl)s3)cs2)cc1C(F)(F)F` [Compound 99, methyl 2-((4-(5-chlorothiophen-2-yl)thiazol-2-yl)(4-(pentyloxy)-3-(trifluoromethyl)phenyl)amino)-2-oxoacetate] cannot be ordered by EC50: under 1 µM for the first, under 1 µM for the second.

`CCCCCOc1ccc(N(C(=O)C(N)=O)c2nc(-c3cccnc3)cs2)cc1C(F)(F)F` [Compound 153, N1-(4-(pentyloxy)-3-(trifluoromethyl)phenyl)-N1-(4-(pyridin-3-yl)thiazol-2-yl)oxalamide] and `CCCCCOc1ccc(N(C=O)c2nc(-c3cccnc3)cs2)cc1C(F)(F)F` [Compound 50, N-(4-(pentyloxy)-3-(trifluoromethyl)phenyl)-N-(4-(pyridin-3-yl)thiazol-2-yl)formamide] cannot be ordered by EC50: under 1 µM for the first, under 1 µM for the second.

`O=C(O)CCC(=O)N(c1ccc(OCCCCc2cccs2)c(C(F)(F)F)c1)c1nc(-c2cccnc2)c(F)s1` [Compound 174, 4-((5-fluoro-4-(pyridin-3-yl)thiazol-2-yl)(4-(4-(thiophen-2-yl)butoxy)-3-(trifluoromethyl)phenyl)amino)-4-oxobutanoic acid] and `CN(C)CC(=O)N(c1ccc(OCCCCc2cccs2)c(C(F)(F)F)c1)c1nc(-c2cccnc2)c(F)s1` [Compound 173, 2-(dimethylamino)-N-(5-fluoro-4-(pyridin-3-yl)thiazol-2-yl)-N-(4-(4-(thiophen-2-yl)butoxy)-3-(trifluoromethyl)phenyl)acetamide] cannot be ordered by EC50: under 1 µM for the first, under 1 µM for the second.

`CCCCCOc1ccc(N(C(=O)C2CCCCC2)c2nc(-c3ccccn3)cs2)cc1C(F)(F)F` [Compound 96, N-(4-(pentyloxy)-3-(trifluoromethyl)phenyl)-N-(4-(pyridin-2-yl)thiazol-2-yl)cyclohexanecarboxamide] and `CCCCCOc1ccc(N(C(=O)C(=O)OC)c2nc(C(=O)Nc3cccnc3)cs2)cc1C(F)(F)F` [Compound 30, methyl 2-oxo-2-((4-(pentyloxy)-3-(trifluoromethyl)phenyl)(4-(pyridin-3-ylcarbamoyl)thiazol-2-yl)amino)acetate] cannot be ordered by EC50: under 1 µM for the first, under 1 µM for the second.

Going from `CCCCCCCCOc1ccc(N(C(=O)C(C)OC(C)=O)c2nc(-c3ccc(C)nc3)cs2)cc1` (stereo not shown) [Compound 63, 1-((4-(6-methylpyridin-3-yl)thiazol-2-yl)(4-(octyloxy)phenyl)amino)-1-oxopropan-2-yl acetate] to `CCCCCCCCOc1ccc(N(C(N)=O)c2nc(-c3ccc(C(=O)N(C)C)nc3)cs2)cc1` [Compound 78, N,N-dimethyl-5-(2-(1-(4-(octyloxy)phenyl)ureido)thiazol-4-yl)picolinamide], the EC50 rises from under 1 µM to over 10 µM.

Compared with `CCCCCCCC(F)(F)c1ccc(N(C(C)=O)c2nc(-c3cccnc3)cs2)cc1` [Compound 154, N-(4-(1,1-difluorooctyl)phenyl)-N-(4-(pyridin-3-yl)thiazol-2-yl)acetamide], `CCCCCCCCOc1ccc(N(C(=O)NC2CCCCC2)c2nc(-c3cccnc3)cs2)cc1` [Compound 88, 3-cyclohexyl-1-(4-(octyloxy)phenyl)-1-(4-(pyridin-3-yl)thiazol-2-yl)urea] is higher in EC50: under 1 µM for the first, 1 to 10 µM for the second.

`NC(=O)N(c1ccc(OCC2CCCCC2)c(F)c1)c1nc(-c2ccc(F)cc2)cs1` [Compound 117, 1-(4-(cyclohexylmethoxy)-3-fluorophenyl)-1-(4-(4-fluorophenyl)thiazol-2-yl)urea] and `Cc1ccc(-c2csc(N(C(N)=O)c3ccc(OCC4CCCCC4)c(F)c3)n2)cn1` [Compound 114, 1-(4-(cyclohexylmethoxy)-3-fluorophenyl)-1-(4-(6-methylpyridin-3-yl)thiazol-2-yl)urea] fall in the same range of EC50: 1 to 10 µM for the first, 1 to 10 µM for the second.

Compared with `CCCCCCCCOc1ccc(N(C(=O)OC)c2nc(-c3ccc(F)cc3)cs2)cc1` [Compound 48, methyl 4-(4-fluorophenyl)thiazol-2-yl(4-(octyloxy)phenyl)carbamate], `CCCCCCCCOc1ccc(N(CC(N)=O)c2nc(-c3ccc(OCC(N)=O)cc3)cs2)cc1` [Compound 82, 2-((4-(4-(2-amino-2-oxoethoxy)phenyl)thiazol-2-yl)(4-(octyloxy)phenyl)amino)acetamide] is higher in EC50: 1 to 10 µM for the first, over 10 µM for the second. The first is the more potent here.

In the case of `CCCCCCOc1ccc(N(C(N)=O)c2nc(-c3ccc(O)c(C(N)=O)c3)cs2)cc1` [Compound 144, 5-(2-(1-(4-(hexyloxy)phenyl)ureido)thiazol-4-yl)-2-hydroxybenzamide], the EC50 is reported as 1 to 10 µM.
